# Test results taken from patent US8575156B2, “Cyclic inhibitors of 11β-hydroxysteroid dehydrogenase 1” (Vitae Pharmaceuticals, Inc., priority 2007, dated 2013).
# Read-outs that look alike come from different tables or passages of the source.
# Biological target: 11β-HSD1 (Homo sapiens, UniProt P28845)
# Assay: biochemical
# Conditions: for IC50: IC50 Range
# [1] = Biological Test Example 1, microsomes from CHO cells overexpressing human 11β-HSD1
# [2] = read-out: Average % inhibition at 100 nM, Biological Test Example 1, 100 nM
# [3] = read-out: Average % inhibition at 100 nM
# Sequence of 11β-HSD1 (P28845 whole entry): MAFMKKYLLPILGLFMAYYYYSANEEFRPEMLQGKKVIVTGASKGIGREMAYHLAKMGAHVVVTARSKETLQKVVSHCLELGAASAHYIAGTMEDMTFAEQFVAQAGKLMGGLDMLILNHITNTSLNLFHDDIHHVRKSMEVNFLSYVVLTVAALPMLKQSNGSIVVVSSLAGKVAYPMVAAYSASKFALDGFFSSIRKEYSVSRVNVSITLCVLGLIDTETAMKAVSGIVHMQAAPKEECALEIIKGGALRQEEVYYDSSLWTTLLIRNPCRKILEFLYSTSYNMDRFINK
Compound,IC50 [1] [nM],inhibition at 0.1 µM [2] [%],inhibition at 0.1 µM [3] [%],IC50 [nM]
"C[C@@H](c1ccc(CC(C)(C)O)cc1)N1CC[C@](CCCO)(c2ccccc2)OC1=O [EXAMPLE 312, (R)-3-((S)-1-(4-(2-hydroxy-2-methylpropyl)phenyl)ethyl)-6-(3-hydroxypropyl)-6-phenyl-1,3-oxazinan-2-one]",< 100,,85.7,
"C[C@@H](c1ccc(OC(F)F)cc1)N1CC[C@](CCO)(c2ccccc2)OC1=O [EXAMPLE 327, (S)-3-((S)-1-(4-(difluoromethoxy)phenyl)ethyl)-6-(2-hydroxyethyl)-6-phenyl-1,3-oxazinan-2-one]",< 100,97.2,,
"C[C@@H](c1ccc(OC(F)F)cc1)N1CC[C@](CCCO)(c2ccccc2)OC1=O [EXAMPLE 329, (R)-3-((S)-1-(4-(difluoromethoxy)phenyl)ethyl)-6-(3-hydroxypropyl)-6-phenyl-1,3-oxazinan-2-one]",< 100,99.8,,
"C[C@@H](c1ccc(OC(F)F)cc1)N1CC[C@](CCCNS(C)(=O)=O)(c2ccccc2)OC1=O [EXAMPLE 331, N-(3-((R)-3-((S)-1-(4-(difluoromethoxy)phenyl)ethyl)-2-oxo-6-phenyl-1,3-oxazinan-6-yl)propyl)methanesulfonamide]",< 100,97.1,,
"CC(C)(C)OC(=O)N1CCC[C@H](N2CC[C@](CCC(N)=O)(c3ccc(F)cc3)OC2=O)C1 [EXAMPLE 339, (S)-tert-butyl 3-((R)-6-(3-amino-3-oxopropyl)-6-(4-fluorophenyl)-2-oxo-1,3-oxazinan-3-yl)piperidine-1-carboxylate]",< 100,65.9,,
"O=C(OCc1ccccc1)N1CCC[C@H](N2CC[C@](CCCO)(c3ccc(F)cc3)OC2=O)C1 [EXAMPLE 340, (S)-benzyl 3-((R)-6-(4-fluorophenyl)-6-(3-hydroxypropyl)-2-oxo-1,3-oxazinan-3-yl)piperidine-1-carboxylate]",< 100,,75.9,
"O=C1O[C@@](CCCO)(c2ccc(F)cc2)CCN1[C@H]1CCCN(Cc2ccccc2)C1 [EXAMPLE 341, (R)-3-((S)-1-benzylpiperidin-3-yl)-6-(4-fluorophenyl)-6-(3-hydroxypropyl)-1,3-oxazinan-2-one]",,,82,< 100
"O=C1OC(CCCO)(c2ccc(F)cc2)CCN1Cc1ccc(Cl)cc1Cl (centres unmarked) [EXAMPLE 343, 3-(2,4-dichlorobenzyl)-6-(4-fluorophenyl)-6-(3-hydroxypropyl)-1,3-oxazinan-2-one]",< 100,,82.3,
"C=CCC1(c2ccc(F)cc2)CCN(Cc2cc(Cl)ccc2Cl)C(=O)O1 (centres unmarked) [EXAMPLE 344, 6-allyl-3-(2,5-dichlorobenzyl)-6-(4-fluorophenyl)-1,3-oxazinan-2-one]",< 100,65.7,,
"O=C1OC(CCCO)(c2ccc(F)cc2)CCN1Cc1cc(Cl)ccc1Cl (centres unmarked) [EXAMPLE 345, 3-(2,5-dichlorobenzyl)-6-(4-fluorophenyl)-6-(3-hydroxypropyl)-1,3-oxazinan-2-one]",< 100,74.7,,
"C=CCC1(c2ccc(F)cc2)CCN(Cc2c(Cl)cccc2Cl)C(=O)O1 (centres unmarked) [EXAMPLE 346, 6-allyl-3-(2,6-dichlorobenzyl)-6-(4-fluorophenyl)-1,3-oxazinan-2-one]",< 100,94,,
"O=C1OC(CCCO)(c2ccc(F)cc2)CCN1Cc1c(Cl)cccc1Cl (centres unmarked) [EXAMPLE 347, 3-(2,6-dichlorobenzyl)-6-(4-fluorophenyl)-6-(3-hydroxypropyl)-1,3-oxazinan-2-one]",< 100,96,,
"O=C1OC(CCCO)(c2ccc(F)cc2)CCN1Cc1c(F)cccc1F (centres unmarked) [EXAMPLE 348, 3-(2,6-difluorobenzyl)-6-(4-fluorophenyl)-6-(3-hydroxypropyl)-1,3-oxazinan-2-one]",< 100,48.9,,
"O=C1OC(CCCO)(c2ccc(F)cc2)CCN1Cc1c(F)cccc1Cl (centres unmarked) [EXAMPLE 349, 3-(2-chloro-6-fluorobenzyl)-6-(4-fluorophenyl)-6-(3-hydroxypropyl)-1,3-oxazinan-2-one]",< 100,89.8,,
"C=CCC1(c2ccc(F)cc2)CCN(Cc2ccccc2Br)C(=O)O1 (centres unmarked) [EXAMPLE 350, 6-allyl-3-(2-bromobenzyl)-6-(4-fluorophenyl)-1,3-oxazinan-2-one]",< 100,91.8,,
"O=C1OC(CCCO)(c2ccc(F)cc2)CCN1Cc1ccccc1Br (centres unmarked) [EXAMPLE 351, 3-(2-bromobenzyl)-6-(4-fluorophenyl)-6-(3-hydroxypropyl)-1,3-oxazinan-2-one]",< 100,83.1,,
"COC(=O)c1ccccc1CN1CC[C@](CCCO)(c2ccc(F)cc2)OC1=O [EXAMPLE 352, (R)-methyl 2-((6-(4-fluorophenyl)-6-(3-hydroxypropyl)-2-oxo-1,3-oxazinan-3-yl)methyl)benzoate]",< 100,60.8,,

# Continued, in another order:
IC50 [1] [nM],inhibition at 0.1 µM [2] [%],Compound,inhibition at 0.1 µM [3] [%],IC50 [nM]
< 100,96.7,"Cc1cc(-c2ccc([C@H](C)N3CC[C@](CCCO)(c4ccc(F)cc4)OC3=O)cc2)ccn1 [EXAMPLE 311, (R)-6-(4-fluorophenyl)-6-(3-hydroxypropyl)-3-((S)-1-(4-(2-methylpyridin-4-yl)phenyl)ethyl)-1,3-oxazinan-2-one]",,
< 100,96.5,"COc1ccc([C@H](C)N2CC[C@](CCCNS(C)(=O)=O)(c3ccc(F)cc3)OC2=O)cc1 [EXAMPLE 314, N-(3-((R)-6-(4-fluorophenyl)-3-((S)-1-(4-methoxyphenyl)ethyl)-2-oxo-1,3-oxazinan-6-yl)propyl)methanesulfonamide]",,
< 100,93.2,"COc1ccc([C@H](C)N2CC[C@](CCC(N)=O)(c3ccccc3)OC2=O)cc1 [EXAMPLE 315, 3-((R)-3-((S)-1-(4-methoxyphenyl)ethyl)-2-oxo-6-phenyl-1,3-oxazinan-6-yl)propanamide]",,
< 100,87.5,"C[C@@H](C1CCCCC1)N1CC[C@](CCC(N)=O)(c2ccc(F)cc2)OC1=O [EXAMPLE 317, 3-((R)-3-((S)-1-cyclohexylethyl)-6-(4-fluorophenyl)-2-oxo-1,3-oxazinan-6-yl)propanamide]",,
< 100,83.8,"C[C@@H](C1CCCCC1)N1CC[C@](CCNS(C)(=O)=O)(c2ccc(F)cc2)OC1=O [EXAMPLE 318, N-(2-((S)-3-((S)-1-cyclohexylethyl)-6-(4-fluorophenyl)-2-oxo-1,3-oxazinan-6-yl)ethyl)methanesulfonamide]",,
< 100,93.4,"C[C@@H](C1CCCCC1)N1CC[C@](CCCNS(C)(=O)=O)(c2ccc(F)cc2)OC1=O [EXAMPLE 319, N-(3-((R)-3-((S)-1-cyclohexylethyl)-6-(4-fluorophenyl)-2-oxo-1,3-oxazinan-6-yl)propyl)methanesulfonamide]",,
< 100,96.1,"CC(=O)C[C@]1(c2ccc(F)cc2)CCN([C@@H](C)c2ccc(OC(F)F)cc2)C(=O)O1 [EXAMPLE 321, (S)-3-((S)-1-(4-(difluoromethoxy)phenyl)ethyl)-6-(4-fluorophenyl)-6-(2-oxopropyl)-1,3-oxazinan-2-one]",,
< 100,97.7,"CC[C@@H](c1ccc(OC(F)F)cc1)N1CC[C@](CCC(N)=O)(c2ccc(F)cc2)OC1=O [EXAMPLE 326, 3-((R)-3-((S)-1-(4-(difluoromethoxy)phenyl)propyl)-6-(4-fluorophenyl)-2-oxo-1,3-oxazinan-6-yl)propanamide]",,
